# Columns and labels:
# LSR = test: Ligand blot of 125I-leptin on LSR complexes immunoprecipitated from PLC cells; type: binding, human; conditions: PLC cell lysates; complexes of 200 and 230 kDa
# Description: FIGS. 4A, 4B, 4C, and 4D show LSR binding and degradation of ^125I-leptin in human hepatocytes, and the effect of 81B anti-LSR antibody. For FIG. 4A, PLC cells were lysed (3-T175 cm^2 flasks per condition) and immunoprecipitated with irrelevant or 81B anti-serum. The immunoprecipitates were washed, were separated on 10% SDS-polyacrylamide gels under nondenaturing conditions, and were transferred to nitrocellulose. Ligand blots using ^125I-leptin were then performed as described in FIG. 2. For FIG. 4B, confluent monolayers of PLC cells were incubated at 37° C. for 30 min with 100 nM insulin, were washed, and then were incubated for 30 min at room temperature in the presence of anti-LSR peptide 81B antibody (▪), or irrelevant (□) IgG. After this, the cells were incubated at 37° C. for 2 h with increasing concentrations of ^125I-leptin in Buffer A. The monolayers were washed, and the amount of ^125I-leptin degraded was determined as described herein. Results are shown as the mean of duplicate (irrelevant IgG) or triplicate (anti-LSR peptide IgG) determinations. FIG. 4C is a schematic diagram of the motifs found from the predicted protein sequence of LSR α cDNA. […] After washing and incubation with goat-anti-rabbit FITC-conjugated antibody, the cells were fixed and analyzed by flow cytometry using a FACSCalibur (Becton Dickinson). […]
# lipase = test: Postheparin lipolytic activity in db^Pas/db^Pas mice; type: in vivo, mouse; conditions: 50 μg/animal, t=2 h after test meal
# Description: FIG. 12 contains a Table that presents results showing the effect of test meal with and without leptin injection on postheparin lipolytic activity in db^Pas/db^Pas mice. Animals were gavaged with the test-meal and injected at the same time with 50 μg leptin or physiological saline as described previously (t=0 h). After 1 h, the mice were injected with heparin and blood samples were taken at the peak of postprandial triglyceridemia (t=2 h). Lipase activity was measured in the postheparin plasma as described in the Examples section herein, and is reported here as the mean±SEM (n=3 animals for each condition; ns=not significant).
# Mice were gavage-fed and injected with leptin or control solutions as described above. At t=1 h, the mice were injected subcutaneously with heparin (100 IU/kg body weight). At t=2 h, the animals were bled and the plasma was immediately separated by centrifugation. Lipase activity was determined according to Iverius and Brunzell (1985) using 20% Lipoven (Fresenius France Pharma, Louviers, France) as the source of TG. The assay was performed using 25 μL postheparin plasma in 0.15 M NaCl (200 μL total volume), and in the presence of 10 μL heat-inactivated (56° C., 30 min) human plasma as a source of apoC's. Before and at the end of the incubation, FFA concentrations were determined using an enzymatic kit.
substance,measurement,setting,value
"leptin: plasma protein of 16 kDa produced by adipocytes; recombinant human or mouse leptin, species depends on the experiment",binding of 125I-leptin to multimeric complexes precipitated by the 81B antibody,LSR,binds directly
same,lipase activity released in serum after heparin injections,lipase,did not significantly modify lipase activity
